Reference: ChEMBL document CHEMBL1201862, “PubChem BioAssay data set” (2004)
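Interpolation was linear, between the two tested concentrations surrounding the appropriate level; five concentrations were tested over 48 hours in 96-well plates. GI50 is the concentration that inhibits growth by half.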 Calls of active or inactive are those of the source. No stated cut-off is given here; in the data, active = GI50 up to about 1.1 µM and inactive = higher.

Experiments:
Assay in all cases: inhibition of tumour cell growth, NCI panel, 48 h
U-251 = test system: U-251
RPMI-8226 = test system: RPMI-8226
OVCAR-5 = test system: OVCAR-5
NCI-H23 = test system: NCI-H23
UACC-62 = test system: UACC-62
MDA-MB-231 = test system: MDA-MB-231
SK-MEL-5 = test system: SK-MEL-5
A549 = test system: A549
SF-268 = test system: SF-268
SK-OV-3 = test system: SK-OV-3
RXF 393 = test system: RXF 393
UACC-257 = test system: UACC-257
NCI-H522 = test system: NCI-H522
M14 = test system: M14
A498 = test system: A498
SF-539 = test system: SF-539
HCC 2998 = test system: HCC 2998
ACHN = test system: ACHN
DMS-273 = test system: DMS-273
Hs-578T = test system: Hs-578T

SMILES | GI50 (U-251) | GI50 (RPMI-8226) | GI50 (OVCAR-5) | GI50 (NCI-H23) | GI50 (UACC-62) | GI50 (MDA-MB-231) | GI50 (SK-MEL-5) | GI50 (A549) | GI50 (SF-268) | GI50 (SK-OV-3) | GI50 (RXF 393) | GI50 (UACC-257) | GI50 (NCI-H522) | GI50 (M14) | GI50 (A498) | GI50 (SF-539) | GI50 (HCC 2998) | GI50 (ACHN) | GI50 (DMS-273) | GI50 (Hs-578T)
CC(C)Cn1cnc2c(Sc3c([N+](=O)[O-])ncn3C)nc(N)nc21 | > 87.1 µM (inactive) | > 52.7 µM (inactive) | > 100 µM (inactive) | > 65.5 µM (inactive) | > 50.2 µM (inactive) | 64.4 µM (inactive) | 15.2 µM (inactive) | > 67.9 µM (inactive) | > 100 µM (inactive) | > 100 µM (inactive) | > 56.1 µM (inactive) | > 49.3 µM (inactive) | 26.3 µM (inactive) | > 52.2 µM (inactive) | > 100 µM (inactive) | > 23.7 µM (inactive) | > 62.7 µM (inactive) | > 63.8 µM (inactive) | > 100 µM (inactive) | 
Cc1cc(CS(=O)(=O)/C=C/c2ccccc2[N+](=O)[O-])c(CS(=O)(=O)/C=C/c2ccccc2[N+](=O)[O-])cc1C | 19.6 µM (inactive) | 9.42 µM (inactive) | > 57.1 µM (inactive) | 17.7 µM (inactive) | 23.6 µM (inactive) | 16.4 µM (inactive) | 37.2 µM (inactive) | 57.7 µM (inactive) | 25.4 µM (inactive) | 24 µM (inactive) | 10.3 µM (inactive) | > 65 µM (inactive) | 23.7 µM (inactive) | > 69.8 µM (inactive) | 26.5 µM (inactive) | 14.4 µM (inactive) | > 85.3 µM (inactive) | 34.4 µM (inactive) | > 100 µM (inactive) | 3.44 µM (inactive)
CC(=O)OCc1cc2c(s1)C(=O)c1sccc1C2=O | 0.248 µM (active) | 0.239 µM (active) | 0.19 µM (active) | 0.018 µM (active) | 0.166 µM (active) | 0.237 µM (active) | 0.0426 µM (active) | 0.181 µM (active) | 0.154 µM (active) | 1.72 µM (inactive) | 0.157 µM (active) | 0.0986 µM (active) | 0.147 µM (active) | < 0.0139 µM (active) | 1.82 µM (inactive) | 0.115 µM (active) | 1.78 µM (inactive) | 0.0881 µM (active) | 0.155 µM (active) | 0.157 µM (active)
COC(=O)c1ccccc1NCc1cc(O)ccc1O | 20.1 µM (inactive) | 10.5 µM (inactive) | 29.4 µM (inactive) | 32.9 µM (inactive) | 18.2 µM (inactive) |  | 19 µM (inactive) | 32.7 µM (inactive) | 27.9 µM (inactive) | > 100 µM (inactive) | 15.9 µM (inactive) | 15.6 µM (inactive) | 2.63 µM (inactive) | 12.5 µM (inactive) | 34.3 µM (inactive) | 17.7 µM (inactive) | 23.4 µM (inactive) | 16.2 µM (inactive) | 51.5 µM (inactive) | 19.7 µM (inactive)
